Reference: patent US9145346B1, “Process for 2,2,4,4-tetramethylcyclobutane-1,3-diol crystallization” (Eastman Chemical Company, priority 2014, dated 2015)

Assay: Solubility (saturated concentration) of cis-TMCD and trans-TMCD in various solvents, by gas chromatography
Format: physicochemical
Protocol: All concentrations were measured by gas chromatography. Water concentration was measured by Karl Fischer titrations.
The solubility of cis-TMCD and trans-TMCD in various solvents was determined by charging cis-TMCD, trans-TMCD, and the solvent or solvents of interest into a 120 ml jacketed glass vessel. The vessel was equipped with a stir bar in order to provide mixing and the jacket was used to control the temperature of the vessel contents. The vessel was equipped with charging and sampling ports on top of the vessel.
The slurry was allowed to stand for a time sufficient for the solids to saturate the solvent at the desired temperature. At that time, a sample of the solution was withdrawn from the cell using a fritted pipette so as to remove only the liquid phase. The sample was analyzed for cis-TMCD and trans-TMCD isomer content. These values represent the saturated concentration of each isomer at the sampling temperature.
After this, the cell contents were heated to the next desired temperature and the contents were held for another time interval sufficient to allow the slurry to equilibrate. A sample was then taken of the solution and analyzed. Following this procedure, solubility data was collected up to the final desired temperature.
The reported solubility of each isomer at a given temperature for a given solvent is expressed as a weight % relative to the saturated concentration of the isomer at the highest temperature reported for a given solvent.

## CC1(C)[C@H](O)C(C)(C)[C@@H]1O [cis-TMCD, cis-2,2,4,4-tetramethylcyclobutane-1,3-diol]
2-Ethylhexanol, 0.7° C., relative to 89.8° C.
  Relative solubility: 10% relative wt %
2-Ethylhexanol, 12.5° C., relative to 89.8° C.
  Relative solubility: 16% relative wt %
2-Ethylhexanol, 24.7° C., relative to 89.8° C.
  Relative solubility: 21% relative wt %
2-Ethylhexanol, 40.0° C., relative to 89.8° C.
  Relative solubility: 29% relative wt %
2-Ethylhexanol, 49.9° C., relative to 89.8° C.
  Relative solubility: 37% relative wt %
2-Ethylhexanol, 60.2° C., relative to 89.8° C.
  Relative solubility: 46% relative wt %
2-Ethylhexanol, 69.3° C., relative to 89.8° C.
  Relative solubility: 58% relative wt %
2-Ethylhexanol, 79.3° C., relative to 89.8° C.
  Relative solubility: 76% relative wt %
2-Ethylhexanol, 89.8° C., relative to 89.8° C.
  Relative solubility: 100% relative wt %
2-Ethylhexyl Acetate, 5.9° C., relative to 79.4° C.
  Relative solubility: 5% relative wt %
2-Ethylhexyl Acetate, 15.5° C., relative to 79.4° C.
  Relative solubility: 8% relative wt %
2-Ethylhexyl Acetate, 25.1° C., relative to 79.4° C.
  Relative solubility: 12% relative wt %
2-Ethylhexyl Acetate, 40.5° C., relative to 79.4° C.
  Relative solubility: 22% relative wt %
2-Ethylhexyl Acetate, 49.8° C., relative to 79.4° C.
  Relative solubility: 31% relative wt %
2-Ethylhexyl Acetate, 49.9° C., relative to 79.4° C.
  Relative solubility: 32% relative wt %
2-Ethylhexyl Acetate, 60.5° C., relative to 79.4° C.
  Relative solubility: 47% relative wt %
2-Ethylhexyl Acetate, 70.3° C., relative to 79.4° C.
  Relative solubility: 74% relative wt %
2-Ethylhexyl Acetate, 79.4° C., relative to 79.4° C.
  Relative solubility: 100% relative wt %
2-Ethylhexyl Acetate, −5.0° C., relative to 79.4° C.
  Relative solubility: 4% relative wt %
CHDM, 69.0° C., relative to 106.9° C.
  Relative solubility: 27% relative wt %
CHDM, 79.2° C., relative to 106.9° C.
  Relative solubility: 58% relative wt %
CHDM, 88.9° C., relative to 106.9° C.
  Relative solubility: 69% relative wt %
CHDM, 95.6° C., relative to 106.9° C.
  Relative solubility: 85% relative wt %
CHDM, 106.9° C., relative to 106.9° C.
  Relative solubility: 100% relative wt %
Dimethyl Carbonate, 6.2° C., relative to 70.1° C.
  Relative solubility: 7% relative wt %
Dimethyl Carbonate, 16.3° C., relative to 70.1° C.
  Relative solubility: 9% relative wt %
Dimethyl Carbonate, 25.7° C., relative to 70.1° C.
  Relative solubility: 14% relative wt %
Dimethyl Carbonate, 40.5° C., relative to 70.1° C.
  Relative solubility: 28% relative wt %
Dimethyl Carbonate, 54.7° C., relative to 70.1° C.
  Relative solubility: 55% relative wt %
Dimethyl Carbonate, 70.1° C., relative to 70.1° C.
  Relative solubility: 100% relative wt %
Ethanol, 5.3° C., relative to 60.3° C.
  Relative solubility: 47% relative wt %
Ethanol, 14.3° C., relative to 60.3° C.
  Relative solubility: 52% relative wt %
Ethanol, 25.5° C., relative to 60.3° C.
  Relative solubility: 68% relative wt %
Ethanol, 39.9° C., relative to 60.3° C.
  Relative solubility: 81% relative wt %
Ethanol, 50.1° C., relative to 60.3° C.
  Relative solubility: 88% relative wt %
Ethanol, 60.3° C., relative to 60.3° C.
  Relative solubility: 100% relative wt %
Ethyl Acetate, 4.2° C., relative to 54.9° C.
  Relative solubility: 15% relative wt %
Ethyl Acetate, 15.0° C., relative to 54.9° C.
  Relative solubility: 24% relative wt %
Ethyl Acetate, 26.2° C., relative to 54.9° C.
  Relative solubility: 37% relative wt %
Ethyl Acetate, 40.5° C., relative to 54.9° C.
  Relative solubility: 62% relative wt %
Ethyl Acetate, 54.9° C., relative to 54.9° C.
  Relative solubility: 100% relative wt %
Ethyl Acetate, −5.1° C., relative to 54.9° C.
  Relative solubility: 12% relative wt %
Ethylene Glycol, 26.5° C., relative to 91.4° C.
  Relative solubility: 25% relative wt %
Ethylene Glycol, 36.2° C., relative to 91.4° C.
  Relative solubility: 32% relative wt %
Ethylene Glycol, 48.5° C., relative to 91.4° C.
  Relative solubility: 42% relative wt %
Ethylene Glycol, 61.5° C., relative to 91.4° C.
  Relative solubility: 57% relative wt %
Ethylene Glycol, 72.1° C., relative to 91.4° C.
  Relative solubility: 68% relative wt %
Ethylene Glycol, 82.2° C., relative to 91.4° C.
  Relative solubility: 87% relative wt %
Methanol, 16.9° C., relative to 41.3° C.
  Relative solubility: 86% relative wt %
Methanol, 25.6° C., relative to 41.3° C.
  Relative solubility: 91% relative wt %
Methanol, 41.3° C., relative to 41.3° C.
  Relative solubility: 100% relative wt %
Methanol, −2.5° C., relative to 41.3° C.
  Relative solubility: 77% relative wt %
Methyl Acetate, 5.9° C., relative to 49.8° C.
  Relative solubility: 15% relative wt %
Methyl Acetate, 15.5° C., relative to 49.8° C.
  Relative solubility: 22% relative wt %
Methyl Acetate, 25.1° C., relative to 49.8° C.
  Relative solubility: 33% relative wt %
Methyl Acetate, 40.5° C., relative to 49.8° C.
  Relative solubility: 59% relative wt %
Methyl Acetate, 49.8° C., relative to 49.8° C.
  Relative solubility: 100% relative wt %
Methyl Acetate, −5.0° C., relative to 49.8° C.
  Relative solubility: 9% relative wt %
Methyl i-Butyl Carbinol, 9.4° C., relative to 81.9° C.
  Relative solubility: 20% relative wt %
Methyl i-Butyl Carbinol, 20.4° C., relative to 81.9° C.
  Relative solubility: 25% relative wt %
Methyl i-Butyl Carbinol, 31.1° C., relative to 81.9° C.
  Relative solubility: 31% relative wt %
Methyl i-Butyl Carbinol, 40.0° C., relative to 81.9° C.
  Relative solubility: 40% relative wt %
Methyl i-Butyl Carbinol, 49.5° C., relative to 81.9° C.
  Relative solubility: 49% relative wt %
Methyl i-Butyl Carbinol, 60.0° C., relative to 81.9° C.
  Relative solubility: 62% relative wt %
Methyl i-Butyl Carbinol, 69.5° C., relative to 81.9° C.
  Relative solubility: 78% relative wt %
Methyl i-Butyl Carbinol, 81.9° C., relative to 81.9° C.
  Relative solubility: 100% relative wt %
i-Butyl Acetate, 4.8° C., relative to 90.1° C.
  Relative solubility: 5% relative wt %
i-Butyl Acetate, 16.9° C., relative to 90.1° C.
  Relative solubility: 8% relative wt %
i-Butyl Acetate, 25.6° C., relative to 90.1° C.
  Relative solubility: 11% relative wt %
i-Butyl Acetate, 41.3° C., relative to 90.1° C.
  Relative solubility: 19% relative wt %
i-Butyl Acetate, 56.2° C., relative to 90.1° C.
  Relative solubility: 32% relative wt %
i-Butyl Acetate, 70.2° C., relative to 90.1° C.
  Relative solubility: 52% relative wt %
i-Butyl Acetate, 90.1° C., relative to 90.1° C.
  Relative solubility: 100% relative wt %
i-Butyl Acetate, −2.5° C., relative to 90.1° C.
  Relative solubility: 5% relative wt %
n-Butanol, 5.9° C., relative to 60.5° C.
  Relative solubility: 46% relative wt %
n-Butanol, 15.5° C., relative to 60.5° C.
  Relative solubility: 51% relative wt %
n-Butanol, 25.1° C., relative to 60.5° C.
  Relative solubility: 59% relative wt %
n-Butanol, 40.5° C., relative to 60.5° C.
  Relative solubility: 73% relative wt %
n-Butanol, 49.8° C., relative to 60.5° C.
  Relative solubility: 86% relative wt %
n-Butanol, 49.9° C., relative to 60.5° C.
  Relative solubility: 86% relative wt %
n-Butanol, 60.5° C., relative to 60.5° C.
  Relative solubility: 100% relative wt %
n-Butanol, −5.0° C., relative to 60.5° C.
  Relative solubility: 41% relative wt %
n-Butyl Propionate, 6.5° C., relative to 91.9° C.
  Relative solubility: 4% relative wt %
n-Butyl Propionate, 16.8° C., relative to 91.9° C.
  Relative solubility: 7% relative wt %
n-Butyl Propionate, 27.7° C., relative to 91.9° C.
  Relative solubility: 10% relative wt %
n-Butyl Propionate, 41.7° C. (sample 4), relative to 91.9° C.
  Relative solubility: 17% relative wt %
n-Butyl Propionate, 41.7° C. (sample 5), relative to 91.9° C.
  Relative solubility: 18% relative wt %
n-Butyl Propionate, 52.0° C., relative to 91.9° C.
  Relative solubility: 27% relative wt %
n-Butyl Propionate, 61.5° C., relative to 91.9° C.
  Relative solubility: 37% relative wt %
n-Butyl Propionate, 69.1° C., relative to 91.9° C.
  Relative solubility: 50% relative wt %
n-Butyl Propionate, 80.7° C., relative to 91.9° C.
  Relative solubility: 74% relative wt %
n-Butyl Propionate, 91.9° C., relative to 91.9° C.
  Relative solubility: 100% relative wt %
n-Propyl Propionate, 7.0° C., relative to 72.2° C.
  Relative solubility: 10% relative wt %
n-Propyl Propionate, 17.1° C., relative to 72.2° C.
  Relative solubility: 14% relative wt %
n-Propyl Propionate, 26.7° C., relative to 72.2° C.
  Relative solubility: 21% relative wt %
n-Propyl Propionate, 37.4° C., relative to 72.2° C.
  Relative solubility: 30% relative wt %
n-Propyl Propionate, 42.4° C., relative to 72.2° C.
  Relative solubility: 34% relative wt %
n-Propyl Propionate, 52.2° C., relative to 72.2° C.
  Relative solubility: 50% relative wt %
n-Propyl Propionate, 62.9° C., relative to 72.2° C.
  Relative solubility: 72% relative wt %
n-Propyl Propionate, 72.2° C., relative to 72.2° C.
  Relative solubility: 100% relative wt %
